Measurements as given in the OligoGym collection.
Oligonucleotides are written 5' to 3', each unit as a sugar letter and its base; * is a phosphorothioate linkage, no mark a phosphodiester; rarer units and linkages stand in square brackets, end groups in braces. Plain capitals give the bases only. Oligonucleotides are given in HELM: sugar(base)linkage, 5' to 3'; d 2'-deoxyribose, r ribose, m 2'-O-methylribose, p phosphate. ss, as = sense and antisense strand; d = 2'-deoxy (DNA); r = 2'-OH (RNA)

The substances below were run against UBE2D3 (assay: reporter assay of Huesken 2005). Settings: siRNA.
Also: test concentration or dose not given here.

First: RNA1{r(C)p.r(U)p.r(U)p.r(U)p.r(U)p.r(A)p.r(U)p.r(C)p.r(C)p.r(A)p.r(U)p.r(U)p.r(U)p.r(G)p.r(U)p.r(U)p.r(C)p.r(A)p.r(C)p.d(T)p.d(T)}|RNA2{r(G)p.r(U)p.r(G)p.r(A)p.r(A)p.r(C)p.r(A)p.r(A)p.r(A)p.r(U)p.r(G)p.r(G)p.r(A)p.r(U)p.r(A)p.r(A)p.r(A)p.r(A)p.r(G)p.d(A)p.d(A)}$$$RNA1{StrandType:ss}|RNA2{StrandType:as}$
Second: RNA1{r(G)p.r(U)p.r(G)p.r(G)p.r(U)p.r(C)p.r(G)p.r(C)p.r(C)p.r(U)p.r(G)p.r(C)p.r(U)p.r(U)p.r(U)p.r(A)p.r(A)p.r(C)p.r(A)p.d(T)p.d(T)}|RNA2{r(U)p.r(G)p.r(U)p.r(U)p.r(A)p.r(A)p.r(A)p.r(G)p.r(C)p.r(A)p.r(G)p.r(G)p.r(C)p.r(G)p.r(A)p.r(C)p.r(C)p.r(A)p.r(C)p.d(T)p.d(G)}$$$RNA1{StrandType:ss}|RNA2{StrandType:as}$
The normalised inhibition (eCFP-eYFP dual reporter) of the first is lower: 27% for the first, 100% for the second.

Compared with “RNA1{r(A)p.r(G)p.r(C)p.r(A)p.r(U)p.r(U)p.r(U)p.r(G)p.r(U)p.r(C)p.r(U)p.r(C)p.r(G)p.r(A)p.r(U)p.r(A)p.r(U)p.r(U)p.r(C)p.d(T)p.d(T)}|RNA2{r(G)p.r(A)p.r(A)p.r(U)p.r(A)p.r(U)p.r(C)p.r(G)p.r(A)p.r(G)p.r(A)p.r(C)p.r(A)p.r(A)p.r(A)p.r(U)p.r(G)p.r(C)p.r(U)p.d(G)p.d(C)}$$$RNA1{StrandType:ss}|RNA2{StrandType:as}$”, “RNA1{r(U)p.r(G)p.r(C)p.r(U)p.r(A)p.r(U)p.r(G)p.r(U)p.r(G)p.r(A)p.r(U)p.r(C)p.r(C)p.r(A)p.r(A)p.r(A)p.r(C)p.r(C)p.r(C)p.d(T)p.d(T)}|RNA2{r(G)p.r(G)p.r(G)p.r(U)p.r(U)p.r(U)p.r(G)p.r(G)p.r(A)p.r(U)p.r(C)p.r(A)p.r(C)p.r(A)p.r(U)p.r(A)p.r(G)p.r(C)p.r(A)p.d(G)p.d(T)}$$$RNA1{StrandType:ss}|RNA2{StrandType:as}$” is lower in normalised inhibition (eCFP-eYFP dual reporter): 79.2% for the first, 42.2% for the second.

Going from “RNA1{r(A)p.r(U)p.r(U)p.r(A)p.r(A)p.r(C)p.r(A)p.r(G)p.r(U)p.r(A)p.r(A)p.r(U)p.r(G)p.r(G)p.r(C)p.r(A)p.r(G)p.r(C)p.r(A)p.d(T)p.d(T)}|RNA2{r(U)p.r(G)p.r(C)p.r(U)p.r(G)p.r(C)p.r(C)p.r(A)p.r(U)p.r(U)p.r(A)p.r(C)p.r(U)p.r(G)p.r(U)p.r(U)p.r(A)p.r(A)p.r(U)p.d(A)p.d(T)}$$$RNA1{StrandType:ss}|RNA2{StrandType:as}$” to “RNA1{r(C)p.r(A)p.r(A)p.r(G)p.r(C)p.r(C)p.r(A)p.r(C)p.r(A)p.r(A)p.r(U)p.r(U)p.r(A)p.r(U)p.r(G)p.r(G)p.r(G)p.r(A)p.r(C)p.d(T)p.d(T)}|RNA2{r(G)p.r(U)p.r(C)p.r(C)p.r(C)p.r(A)p.r(U)p.r(A)p.r(A)p.r(U)p.r(U)p.r(G)p.r(U)p.r(G)p.r(G)p.r(C)p.r(U)p.r(U)p.r(G)p.d(C)p.d(C)}$$$RNA1{StrandType:ss}|RNA2{StrandType:as}$”, the normalised inhibition (eCFP-eYFP dual reporter) falls from 57.6% to 35.2%.

First: RNA1{r(U)p.r(G)p.r(C)p.r(A)p.r(U)p.r(U)p.r(U)p.r(A)p.r(C)p.r(A)p.r(A)p.r(C)p.r(A)p.r(A)p.r(G)p.r(A)p.r(A)p.r(U)p.r(U)p.d(T)p.d(T)}|RNA2{r(A)p.r(A)p.r(U)p.r(U)p.r(C)p.r(U)p.r(U)p.r(G)p.r(U)p.r(U)p.r(G)p.r(U)p.r(A)p.r(A)p.r(A)p.r(U)p.r(G)p.r(C)p.r(A)p.d(A)p.d(C)}$$$RNA1{StrandType:ss}|RNA2{StrandType:as}$
Second: RNA1{r(U)p.r(C)p.r(U)p.r(G)p.r(C)p.r(A)p.r(G)p.r(G)p.r(U)p.r(C)p.r(C)p.r(A)p.r(G)p.r(U)p.r(U)p.r(G)p.r(G)p.r(G)p.r(G)p.d(T)p.d(T)}|RNA2{r(C)p.r(C)p.r(C)p.r(C)p.r(A)p.r(A)p.r(C)p.r(U)p.r(G)p.r(G)p.r(A)p.r(C)p.r(C)p.r(U)p.r(G)p.r(C)p.r(A)p.r(G)p.r(A)p.d(A)p.d(C)}$$$RNA1{StrandType:ss}|RNA2{StrandType:as}$
The normalised inhibition (eCFP-eYFP dual reporter) of the first is higher: 83.3% for the first, 32.9% for the second.

Going from “RNA1{r(G)p.r(G)p.r(U)p.r(C)p.r(G)p.r(C)p.r(C)p.r(U)p.r(G)p.r(C)p.r(U)p.r(U)p.r(U)p.r(A)p.r(A)p.r(C)p.r(A)p.r(A)p.r(U)p.d(T)p.d(T)}|RNA2{r(A)p.r(U)p.r(U)p.r(G)p.r(U)p.r(U)p.r(A)p.r(A)p.r(A)p.r(G)p.r(C)p.r(A)p.r(G)p.r(G)p.r(C)p.r(G)p.r(A)p.r(C)p.r(C)p.d(A)p.d(C)}$$$RNA1{StrandType:ss}|RNA2{StrandType:as}$” to “RNA1{r(C)p.r(A)p.r(A)p.r(G)p.r(G)p.r(C)p.r(G)p.r(G)p.r(U)p.r(G)p.r(U)p.r(A)p.r(U)p.r(U)p.r(C)p.r(U)p.r(U)p.r(U)p.r(U)p.d(T)p.d(T)}|RNA2{r(A)p.r(A)p.r(A)p.r(A)p.r(G)p.r(A)p.r(A)p.r(U)p.r(A)p.r(C)p.r(A)p.r(C)p.r(C)p.r(G)p.r(C)p.r(C)p.r(U)p.r(U)p.r(G)p.d(A)p.d(T)}$$$RNA1{StrandType:ss}|RNA2{StrandType:as}$”, the normalised inhibition (eCFP-eYFP dual reporter) rises from 84.5% to 104%.

Compared with “RNA1{r(A)p.r(U)p.r(C)p.r(C)p.r(A)p.r(U)p.r(U)p.r(U)p.r(G)p.r(U)p.r(U)p.r(C)p.r(A)p.r(C)p.r(U)p.r(G)p.r(C)p.r(U)p.r(A)p.d(T)p.d(T)}|RNA2{r(U)p.r(A)p.r(G)p.r(C)p.r(A)p.r(G)p.r(U)p.r(G)p.r(A)p.r(A)p.r(C)p.r(A)p.r(A)p.r(A)p.r(U)p.r(G)p.r(G)p.r(A)p.r(U)p.d(A)p.d(A)}$$$RNA1{StrandType:ss}|RNA2{StrandType:as}$”, “RNA1{r(A)p.r(A)p.r(U)p.r(U)p.r(C)p.r(A)p.r(U)p.r(U)p.r(U)p.r(U)p.r(C)p.r(C)p.r(U)p.r(A)p.r(C)p.r(A)p.r(G)p.r(A)p.r(C)p.d(T)p.d(T)}|RNA2{r(G)p.r(U)p.r(C)p.r(U)p.r(G)p.r(U)p.r(A)p.r(G)p.r(G)p.r(A)p.r(A)p.r(A)p.r(A)p.r(U)p.r(G)p.r(A)p.r(A)p.r(U)p.r(U)p.d(G)p.d(T)}$$$RNA1{StrandType:ss}|RNA2{StrandType:as}$” is lower in normalised inhibition (eCFP-eYFP dual reporter): 96.1% for the first, 62.3% for the second.

Going from “RNA1{r(C)p.r(A)p.r(A)p.r(G)p.r(A)p.r(A)p.r(U)p.r(U)p.r(U)p.r(A)p.r(U)p.r(C)p.r(A)p.r(U)p.r(C)p.r(C)p.r(A)p.r(A)p.r(A)p.d(T)p.d(T)}|RNA2{r(U)p.r(U)p.r(U)p.r(G)p.r(G)p.r(A)p.r(U)p.r(G)p.r(A)p.r(U)p.r(A)p.r(A)p.r(A)p.r(U)p.r(U)p.r(C)p.r(U)p.r(U)p.r(G)p.d(T)p.d(T)}$$$RNA1{StrandType:ss}|RNA2{StrandType:as}$” to “RNA1{r(C)p.r(C)p.r(A)p.r(U)p.r(U)p.r(U)p.r(G)p.r(U)p.r(U)p.r(C)p.r(A)p.r(C)p.r(U)p.r(G)p.r(C)p.r(U)p.r(A)p.r(U)p.r(G)p.d(T)p.d(T)}|RNA2{r(C)p.r(A)p.r(U)p.r(A)p.r(G)p.r(C)p.r(A)p.r(G)p.r(U)p.r(G)p.r(A)p.r(A)p.r(C)p.r(A)p.r(A)p.r(A)p.r(U)p.r(G)p.r(G)p.d(A)p.d(T)}$$$RNA1{StrandType:ss}|RNA2{StrandType:as}$”, the normalised inhibition (eCFP-eYFP dual reporter) rises from 93.1% to 94.5%.

Going from “RNA1{r(C)p.r(C)p.r(A)p.r(G)p.r(A)p.r(G)p.r(A)p.r(U)p.r(U)p.r(G)p.r(C)p.r(A)p.r(C)p.r(G)p.r(G)p.r(A)p.r(U)p.r(C)p.r(U)p.d(T)p.d(T)}|RNA2{r(A)p.r(G)p.r(A)p.r(U)p.r(C)p.r(C)p.r(G)p.r(U)p.r(G)p.r(C)p.r(A)p.r(A)p.r(U)p.r(C)p.r(U)p.r(C)p.r(U)p.r(G)p.r(G)p.d(C)p.d(A)}$$$RNA1{StrandType:ss}|RNA2{StrandType:as}$” to “RNA1{r(U)p.r(G)p.r(A)p.r(C)p.r(A)p.r(A)p.r(U)p.r(U)p.r(C)p.r(A)p.r(U)p.r(U)p.r(U)p.r(U)p.r(C)p.r(C)p.r(U)p.r(A)p.r(C)p.d(T)p.d(T)}|RNA2{r(G)p.r(U)p.r(A)p.r(G)p.r(G)p.r(A)p.r(A)p.r(A)p.r(A)p.r(U)p.r(G)p.r(A)p.r(A)p.r(U)p.r(U)p.r(G)p.r(U)p.r(C)p.r(A)p.d(A)p.d(A)}$$$RNA1{StrandType:ss}|RNA2{StrandType:as}$”, the normalised inhibition (eCFP-eYFP dual reporter) falls from 82% to 55.4%.

“RNA1{r(C)p.r(C)p.r(U)p.r(U)p.r(C)p.r(A)p.r(A)p.r(A)p.r(C)p.r(C)p.r(A)p.r(C)p.r(C)p.r(U)p.r(A)p.r(A)p.r(G)p.r(G)p.r(U)p.d(T)p.d(T)}|RNA2{r(A)p.r(C)p.r(C)p.r(U)p.r(U)p.r(A)p.r(G)p.r(G)p.r(U)p.r(G)p.r(G)p.r(U)p.r(U)p.r(U)p.r(G)p.r(A)p.r(A)p.r(G)p.r(G)p.d(G)p.d(G)}$$$RNA1{StrandType:ss}|RNA2{StrandType:as}$” showed a normalised inhibition (eCFP-eYFP dual reporter) of 94.5%.

What follows are substances tested against UBE2W (assay: reporter assay of Huesken 2005). Settings: siRNA.

Going from “sense rUrArUrCrCrArUrUrCrUrArArCrArGrArArGrAdTdT / antisense rUrCrUrUrCrUrGrUrUrArGrArArUrGrGrArUrAdAdA” to “sense rCrCrArArArGrArArArArCrArArArArUrGrGrUdTdT / antisense rArCrCrArUrUrUrUrGrUrUrUrUrCrUrUrUrGrGdAdT”, the normalised inhibition (eCFP-eYFP dual reporter) rises from 83.9% to 101%.

Going from “sense rCrUrArUrUrUrArArArUrUrUrArGrUrArGrUrCdTdT / antisense rGrArCrUrArCrUrArArArUrUrUrArArArUrArGdAdA” to “sense rArCrArCrArGrUrGrGrArUrUrGrUrArGrArCrAdTdT / antisense rUrGrUrCrUrArCrArArUrCrCrArCrUrGrUrGrUdAdA”, the normalised inhibition (eCFP-eYFP dual reporter) rises from 83.5% to 99.3%.

Going from “sense rArCrCrArCrCrGrGrArUrArArUrUrCrUrUrUrUdTdT / antisense rArArArArGrArArUrUrArUrCrCrGrGrUrGrGrUdCdG” to “sense rUrArArCrArArGrArArUrCrCrArArArGrArArAdTdT / antisense rUrUrUrCrUrUrUrGrGrArUrUrCrUrUrGrUrUrAdCdA”, the normalised inhibition (eCFP-eYFP dual reporter) rises from 96.7% to 115%.

With “sense rUrGrCrUrUrUrCrCrArGrCrUrGrCrArArGrGrAdTdT / antisense rUrCrCrUrUrGrCrArGrCrUrGrGrArArArGrCrAdTdG” the normalised inhibition (eCFP-eYFP dual reporter) was 110%.
